{"source": "patent US12551536B2", "about": "“Semaglutide in medical therapy” (Novo Nordisk A/S, priority 2017, dated 2026)", "experiment": "52-week clinical trial in obese subjects without diabetes mellitus: gastrointestinal adverse events", "type": "in vivo, human", "settings": "for Gastrointestinal adverse events, Observed data, % (percentage of subjects with at least one event) / Nausea, % (percentage of subjects experiencing at least one event) / Nausea, E (number of events) / Nausea, Ne (number of subjects experiencing at least one event) / Gastrointestinal adverse events, Observed data, Ne (number of subjects experiencing at least one event): on-treatment; for Nausea, % (percentage of subjects experiencing at least one event) / Nausea, E (number of events) / Nausea, Ne (number of subjects experiencing at least one event): observed data", "procedure": "This trial was designed as a 52-week, randomised, double-blind, placebo-controlled, sixteen-armed, parallel group, multi-centre, multinational trial comparing once-daily subcutaneous administration of semaglutide in five different doses (ranging from 0.05 mg/day to 0.4 mg/day) with placebo in obese subjects without diabetes mellitus. […] The trial was double-blinded between active and placebo treatment. To ensure a sufficiently large sample of men, no more than 70% of the trial population was allowed to be women and the randomisation was stratified according to sex. Subjects were randomised in a balanced manner (6:1 active:placebo).\nThe primary endpoint was relative change from baseline in body weight (%) at 52 weeks. Key secondary endpoints included proportion of subjects with weight loss of ≥5% or ≥10% of baseline body weight at 52 weeks as well as change in body weight from baseline to 52 weeks. Supportive secondary safety endpoints also included gastrointestinal (GI) adverse events (i.e. nausea, vomiting, diarrhoea and constipation). During each site visit the individual subject was asked via open questions if they had experienced any medical problems since the last visit. All medical problems either observed by the site staff or the subject was reported as an adverse event and evaluated for severity and causality by the investigator. For this trial the subjects had site visits every 2 weeks for the first 20 weeks of the trial and afterwards site visits was performed every 4 weeks.\nSubjects in all treatment arms including placebo received nutritional counselling and a calorie-reduced diet by a dietician or equivalent qualified delegate as well as physical activity counselling by a qualified person on a monthly basis beginning at the randomisation visit. The trial population consisted of a total of 957 subjects were randomised. A total of 777 subjects (81.2%) completed 52 weeks of treatment; 180 (18.8%) discontinued treatment prematurely with no obvious dose-dependent trend. Key inclusion criteria for this trial were: Male or female, age ≥18 years at the time of signing inform consent; body mass index (BMI)≥30.0 kg/m2 at the screening visit; and at least one unsuccessful weight loss attempt per investigator judgement. Key exclusion criteria for this trial were: A HbA1c≥6.5% at screening or diagnosed with type 1 or type 2 diabetes mellitus; Treatment with glucose lowering agent(s) within 90 days before screening; Screening calcitonin ≥50 ng/L (pg/mL); Personal or family history of medullary thyroid carcinoma or multiple endocrine neoplasia syndrome type 2; History of pancreatitis (acute or chronic); Obesity induced by endocrine disorders (e.g. Cushing Syndrome); Treatment with any medication within 90 days before screening that based on investigator's judgement may cause significant weight change; Previous surgical treatment for obesity (liposuction and/or abdominoplasty performed >1 year before screening is allowed); History of major depressive disorder within 2 years before randomisation; Any lifetime history of a suicidal attempt; and Female who is pregnant, breast-feeding or intends to become pregnant or is of childbearing potential and not using an adequate contraceptive method (adequate contraceptive measures as required by local regulation or practice).", "key": {"[1]": {"settings": "Sema 0.05 mg once daily s.c., N 103"}, "[2]": {"settings": "Sema 0.1 mg once daily s.c., N 102"}, "[3]": {"settings": "Sema 0.2 mg once daily s.c., N 103"}, "[4]": {"settings": "Sema 0.3 mg once daily s.c., N 103"}, "[5]": {"settings": "Sema 0.4 mg once daily s.c., N 102"}}, "data": [{"substance": "N^6.26-{18-[N-(17-carboxyheptadecanoyl)-L-γ-glutamyl]-10-oxo-3,6,12,15-tetraoxa-9,18-diazaoctadecanoyl}-[8-(2-amino-2-propanoic acid),34-L-arginine]human glucagon-like peptide 1(7-37) [Sema]", "values": [{"measurement": "Corresponding Sema dose (dosage of semaglutide providing the same level of gastrointestinal adverse events as 3.0 mg liraglutide)", "setting": "Lira 3.0 mg, Emax model, Estimate [95% CI]", "result": 0.28, "unit": "mg"}, {"measurement": "Gastrointestinal adverse events, Observed data, % (percentage of subjects with at least one event)", "setting": "Sema 0.05 mg once daily s.c.", "result": 62.1, "unit": "%"}, {"measurement": "Nausea, % (percentage of subjects experiencing at least one event)", "setting": "Sema 0.05 mg once daily s.c.", "result": 31.1, "unit": "%"}, {"measurement": "Nausea, E (number of events)", "setting": "Sema 0.05 mg once daily s.c.", "result": 41}, {"measurement": "Nausea, Ne (number of subjects experiencing at least one event)", "setting": "[1]", "result": 32}, {"measurement": "Gastrointestinal adverse events, Observed data, Ne (number of subjects experiencing at least one event)", "setting": "[1]", "result": 64}, {"measurement": "Gastrointestinal adverse events, Observed data, % (percentage of subjects with at least one event)", "setting": "Sema 0.1 mg once daily s.c.", "result": 70.6, "unit": "%"}, {"measurement": "Nausea, % (percentage of subjects experiencing at least one event)", "setting": "Sema 0.1 mg once daily s.c.", "result": 41.2, "unit": "%"}, {"measurement": "Nausea, E (number of events)", "setting": "Sema 0.1 mg once daily s.c.", "result": 80}, {"measurement": "Nausea, Ne (number of subjects experiencing at least one event)", "setting": "[2]", "result": 42}, {"measurement": "Gastrointestinal adverse events, Observed data, Ne (number of subjects experiencing at least one event)", "setting": "[2]", "result": 72}, {"measurement": "Gastrointestinal adverse events, Observed data, % (percentage of subjects with at least one event)", "setting": "Sema 0.2 mg once daily s.c.", "result": 69.9, "unit": "%"}, {"measurement": "Nausea, % (percentage of subjects experiencing at least one event)", "setting": "Sema 0.2 mg once daily s.c.", "result": 43.7, "unit": "%"}, {"measurement": "Nausea, E (number of events)", "setting": "Sema 0.2 mg once daily s.c.", "result": 74}, {"measurement": "Nausea, Ne (number of subjects experiencing at least one event)", "setting": "[3]", "result": 45}, {"measurement": "Gastrointestinal adverse events, Observed data, Ne (number of subjects experiencing at least one event)", "setting": "[3]", "result": 72}, {"measurement": "Gastrointestinal adverse events, Observed data, % (percentage of subjects with at least one event)", "setting": "Sema 0.3 mg once daily s.c.", "result": 69.9, "unit": "%"}, {"measurement": "Nausea, % (percentage of subjects experiencing at least one event)", "setting": "Sema 0.3 mg once daily s.c.", "result": 41.7, "unit": "%"}, {"measurement": "Nausea, E (number of events)", "setting": "Sema 0.3 mg once daily s.c.", "result": 69}, {"measurement": "Nausea, Ne (number of subjects experiencing at least one event)", "setting": "[4]", "result": 43}, {"measurement": "Gastrointestinal adverse events, Observed data, Ne (number of subjects experiencing at least one event)", "setting": "[4]", "result": 72}, {"measurement": "Gastrointestinal adverse events, Observed data, % (percentage of subjects with at least one event)", "setting": "Sema 0.4 mg once daily s.c.", "result": 82.4, "unit": "%"}, {"measurement": "Nausea, % (percentage of subjects experiencing at least one event)", "setting": "Sema 0.4 mg once daily s.c.", "result": 48.0, "unit": "%"}, {"measurement": "Nausea, E (number of events)", "setting": "Sema 0.4 mg once daily s.c.", "result": 94}, {"measurement": "Nausea, Ne (number of subjects experiencing at least one event)", "setting": "[5]", "result": 49}, {"measurement": "Gastrointestinal adverse events, Observed data, Ne (number of subjects experiencing at least one event)", "setting": "[5]", "result": 84}]}]}
